Laboratory results as given in patent US20090275753A1, “ORTHO-SUBSTITUTED ANILINE DERIVATIVE AND ANTIOXIDANT DRUG” (NIPPON SODA CO., LTD., priority 2005, published 2009).

Columns and labels:
[1] = Test for evaluating oral absorption: serum concentration by HPLC; type: in vivo, rat; conditions: SD male rats, oral 30 mg/kg, one hour after administration
Protocol: (Test for Evaluating Oral Absorption)
The absorption of the compound of the present invention upon oral administration was evaluated in rats.
The compound of the present invention was dissolved in DMSO (final concentration: 20%), and then dissolved or suspended in a 0.1N hydrochloric acid physiological saline solution or a 1% polyethylene hardened castor oil (NIKOL HCO-60, manufactured by Nikko Chemicals Co., Ltd.).
This solution was administered orally, at a dose of 30 mg/kg, to a group of three SD male rats (Japan SLC, 6 weeks old). One hour after administration and following anesthetization, blood was collected from the abdominal vena cava in a plastic blood collection tube containing a serum separating agent. The blood sample was left to stand for approximately one hour, and following clotting, the serum was obtained by conducting a centrifugal separation at 3,000 rpm for a period of 10 minutes. […] The quantity of the compound of the present invention that existed within this filtered solution was measured by high-performance liquid chromatography (HPLC), under the conditions shown below. […]
The filtered solution for HPLC described in the previous paragraph was measured using the following representative conditions. […]

[2] = tested on: lipid peroxidation in pig retina homogenate; assay: Test for evaluating in vitro inhibition of lipid peroxidation (thiobarbituric acid method); type: biochemical; conditions: 500 μM cysteine and 5 μM FeSO4, 30 minutes at 37° C., malondialdehyde, read-out: in vitro inhibition of lipid peroxidation (50% inhibition concentration IC50)
Protocol: (Test for Evaluating in vitro Inhibition of Lipid Peroxidation)
Evaluation of the in vitro inhibition of lipid peroxidation of the compound of the present invention was conducted in accordance with the method disclosed by Malvy et al. (Malvy, C., et al., Biochemical and Biophysical Research Communications, 1980, vol. 95, pp. 734 to 737).
As the organ, retinas that had been separated from pig eyeballs and subsequently stored at −80° C. were used. At the time of use, a 5-fold excess of a phosphate-buffered physiological saline solution (pH 7.4) was added, and the mixture was homogenized using a microhomogenizer (PHYSCOTRON, NITI-ON).
To this pig retina homogenate were added 0.15M KCl, the compound of the present invention, 500 μM cysteine and 5 μM FeSO4, and the mixture was then incubated for 30 minutes at 37° C.
The malondialdehyde generated upon decomposition of the lipid peroxide was measured using the thiobarbituric acid method. Based on the measured values, the 50% inhibition concentration (hereafter also referred to as “IC50”) of the compound of the present invention was determined.

[3] = tested on: lipid peroxidation in retina homogenate; assay: Test for evaluating tissue distribution: ex vivo inhibition of lipid peroxidation, retina; type: in vivo, rat; conditions: SD male rats, oral administration, one hour after administration, with feeding
Protocol: (§1) (Test for Evaluating Tissue Distribution)
(§2) The tissue distribution properties of the compound of the present invention were evaluated by measuring the ex vivo inhibition of lipid peroxidation.
(§3) The compound of the present invention was dissolved in DMSO (final concentration: 20%), and then dissolved or suspended in a 0.1N hydrochloric acid physiological saline solution or a 1% polyethylene hardened castor oil (NIKOL HCO-60, manufactured by Nikko Chemicals Co., Ltd.)
This solution was administered orally, at a dose of 30 mg/kg, to either a group of three SD male rats (Japan SLC, 6 weeks old) that had been feed-deprived for 24 hours, or a group of three SD male rats (Japan SLC, 6 weeks old) that had not been feed-deprived. One hour after administration and following anesthetization, the brains and eyeballs were removed. Using the method disclosed above in the section relating to the “test for evaluating in vitro inhibition of lipid peroxidation”, the brains, and the retinas separated from the eyeballs were homogenized, and the quantity of lipid peroxide within each tissue homogenate was then measured.
(§4) The inhibition rate of the compound of the present invention within each of the tissues was determined from the quantities of lipid peroxide generated in a control group (20% DMSO-0.1N hydrochloric acid physiological saline solution/1% polyethylene hardened castor oil) and in the group administered with the compound of the present invention.

[4] = tested on: lipid peroxidation in brain homogenate; assay: Test for evaluating tissue distribution: ex vivo inhibition of lipid peroxidation, brain; type: in vivo, rat; conditions: SD male rats, oral 30 mg/kg, one hour after administration, fasting
Protocol: as §1, §2, §3
This solution was administered orally, at a dose of 30 mg/kg, to either a group of three SD male rats (Japan SLC, 6 weeks old) that had been feed-deprived for 24 hours, or a group of three SD male rats (Japan SLC, 6 weeks old) that had not been feed-deprived. […] Using the method disclosed above in the section relating to the “test for evaluating in vitro inhibition of lipid peroxidation”, the brains, and the retinas separated from the eyeballs were homogenized, and the quantity of lipid peroxide within each tissue homogenate was then measured.
as §4

serum concentration [1]	concentration at 1 h ([1]; rat, serum) [nM]	SMILES	IC50 [2] [nM]	ex vivo inhibition of lipid peroxidation 50% inhibition quantity (ID50) Retina [3]	ex vivo inhibition of lipid peroxidation inhibition rate (%) Brain [4]
Below detection limit	–	Cc1c(C)c2c(c(CN)c1N)CC(C)(C)O2 [Compound R-1, reference compound]	300	72 (with feeding) mg/kg	–
–	2400	Cc1c(C)c2c(c(CNc3ccc(-c4ccn[nH]4)cc3)c1N)CC(C)(C)O2 [Compound 29, 5-(4-(5-amino-2,2,6,7-tetramethyldihydrobenzofuran-4-ylmethylamino)phenyl)pyrazole]	–	60 (with feeding) mg/kg	–
–	–	Cc1c(C)c2c(c(CCc3ccccc3)c1N)CC(C)(C)O2 [Compound 83, 2,2,6,7-tetramethyl-4-phenylethyl-5-aminodihydrobenzofuran]	260	67 (with feeding) mg/kg	96 (fasting) %
